Measurements: US10662193B2, “Carbazole and carboline compounds for use in the diagnosis, treatment, alleviation or prevention of disorders associated with amyloid or amyloid-like proteins” (AC IMMUNE SA, priority 2014, dated 2020)
pKi: −log10 of the molar value.

What was measured:
[1] = system: tau tangles/Aβ plaques on AD brain sections; assay: Assay 1: direct staining of human Alzheimer's disease brain sections (fluorescence); assay type: binding; design: key to Direct staining of tau tangles/Aβ plaques on AD brain sections at 100 μM / Direct staining of tau tangles on AD brain sections at 100 μM / Direct staining of Aβ plaques on AD brain sections at 100 μM / Direct staining of tau tangles on AD brain sections (footnote a: at 250 μM): − (No); +++ (strong); ++ (good); + (weak); settings: 100 μM compound; for Direct staining of tau tangles/Aβ plaques on AD brain sections at 100 μM: human AD brain sections, fluorescence, cell does not say tangles or plaques
Protocol: Assay 1 (Fluorescence Based Assay):
(§1) Direct Binding of Compounds of this Invention to Human Alzheimer's Disease Brain Sections and/or Displacement of RefA and Compound B
(§2) Frozen sections with a thickness of […] from the amygdala of donors diagnosed with Braak stage V-VI Alzheimer's Disease (Braak, H.; Braak, E. Acta Neuropathol., 1991, 82, 239-259), were purchased from a commercial provider (Tissue Solutions) and kept at −80° C. until use.
Direct Staining of Human Alzheimer's Disease Brain Sections
Brain sections were encircled with pap pen liquid blocker to reduce the volume of solution for the different incubations. Sections were fixed for 15 min at 4° C. with 4% paraformaldehyde and washed three times 5 minutes with PBS at room temperature. […] To reduce the auto-fluorescence of the tissue, the sections were incubated in a solution of 0.1% Sudan Black (Sigma 199664) in 70% ethanol for 15 min at room temperature in the dark, washed four times for 5 minutes with PBS, and mounted using ProLong Gold Antifade reagent (Invitrogen P36930). Sections were then analyzed on the Nikon Eclipse Ti microscope to detect staining and imaged using Nikon DS-Fi2 camera and NIS-Element AR4.13.1 software.

[2] = system: Aβ plaques on AD brain section; assay: Assay 1: displacement of Compound B on human AD brain sections (fluorescence); assay type: binding
Protocol: Direct Binding of Compounds of this Invention to Human Alzheimer's Disease Brain Sections and/or Displacement of RefA and Compound B Frozen sections with a thickness of […] from the amygdala of donors diagnosed with Braak stage V-VI Alzheimer's Disease (Braak, H.; Braak, E. Acta Neuropathol., 1991, 82, 239-259), were purchased from a commercial provider (Tissue Solutions) and kept at -80° C. until use. Displacement of RefA and Compound B Brain sections were mainly treated as described above. Test compounds were, however, incubated on the section at 250 μM in 50% ethanol for 20 min at room temperature, and then directly incubated with the fluorescent reference compounds RefA and Compound B, each at 1 μM in 50% ethanol for 20 min at room temperature. RefA and Compound B stainings were visualized using the 470 nm and 365 nm excitation filters, respectively. Images were acquired, and tangles and plaques quantified using the NIS-Element software. Only those compounds not directly staining tangles or plaques at the same wavelengths as RefA and Compound B were tested in the displacement assay. Structure of Compound B (prepared by a similar procedure described for […] in WO2010/011964): […]

[3] = system: tau tangles on AD brain section; assay: Assay 1: displacement of RefA on human AD brain sections (fluorescence); assay type: binding; settings: for Selectivity (tau/Abeta): ratio of competition on tau tangles to competition on Aβ plaques
Protocol: as §1, §2
Displacement of RefA and Compound B
Brain sections were mainly treated as described above. Test compounds were, however, incubated on the section at 250 μM in 50% ethanol for 20 min at room temperature, and then directly incubated with the fluorescent reference compounds RefA and Compound B, each at 1 μM in 50% ethanol for 20 min at room temperature. RefA and Compound B stainings were visualized using the 470 nm and 365 nm excitation filters, respectively. Images were acquired, and tangles and plaques quantified using the NIS-Element software. Only those compounds not directly staining tangles or plaques at the same wavelengths as RefA and Compound B were tested in the displacement assay.
Structure of RefA (Tago et al., J. Label. Compd. Radiopharm. 2013, DOI: 10.1002/jlcr.3133)

AD brain-enriched PHF = AD brain-enriched PHF (Homo sapiens, UniProt P10636); assay: Assay 2 (filter trap): [3H]RefA radio-binding competition assay and Ki on PHF; settings: [^3H]RefA 10 nM; for pKi: PHF diluted 1/80, compound 0.12 nM to 50 μM; for inhibition at 2.5 µM: compound 2.5 μM, no Ki determined
Protocol: Displacement of [^3H]RefA by Compounds of this Invention
50 g of frontal lobe tissue from post-mortem brain of an Alzheimer's disease (AD) patient were obtained from the London Tissue Bank. The patient was a […] and died […]. The brain sample was collected 5 hours post-mortem and characterized for Braak disease stage (Braak, H.; Braak, E. Acta Neuropathol., 1991, 82, 239-259) as stage VI. For the enrichment of PHF's, around 15 g of the AD human brain was thawed on ice and homogenized with 50 ml of homogenization buffer [0.75 M NaCl in RAB buffer (100 mM 2-(N-morpholino) ethanesulfonic acid (MES), 1 mM EGTA, 0.5 mM MgSO4, 2 mM DTT, pH 6.8) supplemented with protease inhibitors (Complete; Roche 11697498001) in a glass Dounce homogenizer. The homogenate was then incubated at 4° C. for 20 min to let any residual microtubules depolymerize, before the homogenate was transferred into polycarbonate centrifuge bottles (16×76 mm; Beckman 355603) and centrifuged at 11,000 g (12,700 RPM) in an ultracentrifuge (Beckman, XL100K) for 20 min at 4° C. using the pre-cooled 70.1 rotor (Beckman, 342184). Pellets were kept on ice. Supernatants were pooled into polycarbonate bottles and centrifuged again at 100,000 g (38,000 RPM) for 1 h at 4° C. in the 70.1 Ti rotor to isolate PHF-rich pellets, whereas soluble tau remained in the supernatants. The pellets from the first and second centrifugations were re-suspended in 120 mL of extraction buffer [10 mM Tris-HCl pH 7.4, 10% sucrose, 0.85 M NaCl, 1% protease inhibitor (Calbiochem 539131), 1 mM EGTA, 1% phosphatase inhibitor (Sigma P5726 and P0044)]. The solution was then transferred into polycarbonate centrifuge bottles (16×76 mm; Beckman 355603) and centrifuged at 15,000 g (14,800 RPM) in an ultracentrifuge (Beckman, XL100K) for 20 min at 4° C. using the 70.1 Ti rotor. In the presence of 10% sucrose and at low speed centrifugation, most PHF remained in the supernatant whereas intact or fragmented NFTs and larger PHF aggregates were pelleted. The pellets were discarded. 20% Sarkosyl (Sigma L7414-10ML) was added to the supernatants to a final concentration of 1% and stirred at room temperature for 1 h. This solution was then centrifuged into polycarbonate bottles at 100,000 g (38,000 RPM) for 1 h at 4° C. in the 70.1 Ti rotor, and the pellets containing PHF-rich material were re-suspended in a total final volume of 1.5 mL of PBS, aliquoted and stored at −80° C.
[^3H]RefA Radio-Binding Competition Assay
AD brain-enriched PHF diluted 1/80 were incubated in the presence of [^3H]RefA at 10 nM and the example compounds of this invention at 2.5 μM (250× excess), for 45 minutes at 37° C. Samples were then analyzed by on GF/B filter plates as described above (in the section “[^3H]RefA radio-binding assay and determination of the dissociation constant (Kd)). Non-specific signal was determined again with an excess of un-labeled RefA and specific binding calculated by subtracting the non-specific signal from the total signal. Competition was calculated as percent, where 0% was defined as the specific binding in the presence of vehicle (2.8% DMSO in PBS) and 100% as the values obtained in the presence of excess cold RefA. Similar assays were performed to determine the competition of the cold compounds on [^3H]RefA on in vitro aggregated recombinant human tau or Abeta1-42 For both recombinant proteins, 20 μg/mL of aggregates were incubated with 10 nM of [^3H]RefA for recombinant human tau or 80 nM of [^3H]RefA for recombinant human Abeta1-42.
Determination of the Binding Affinity (Ki)
Samples were then analyzed on GF/B filter plates as described above and Ki values calculated using Prism V5 (GraphPad).

Sequence of AD brain-enriched PHF (P10636 623-708 limits assumed): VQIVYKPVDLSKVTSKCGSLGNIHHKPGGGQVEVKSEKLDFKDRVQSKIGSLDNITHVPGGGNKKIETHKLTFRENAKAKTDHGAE

SMILES | Direct staining of tau tangles on AD brain sections at 100 μM [1] | Competition on AD brain section tau tangles (1 μM RefA vs. 250 μM compound) [3] | inhibition at 2.5 µM (AD brain-enriched PHF) [%] | Direct staining of tau tangles/Aβ plaques on AD brain sections at 100 μM [1] | also measured
Cn1c2ccncc2c2ccc(Nc3cccc(OCCOCCF)c3)nc21 [Example 95] | ++ (tangles) |  |  |  | Competition on AD brain section Aβ plaques (1 μM Compound B vs 250 μM compound) [2]: 59%
Cn1c2ccncc2c2ccc(Nc3cncc(OCCF)c3)nc21 [Example 59] | +++ (tangles) | 93%. |  |  | Selectivity (tau/Abeta) [3]: >93 fold; Competition on AD brain section Aβ plaques (1 μM Compound B vs 250 μM compound) [2]: −9%
Cn1c2ccncc2c2ccc(Nc3ccn(CCF)n3)nc21 [Example 47] | ++ (tangles) | 89% |  |  | 
Cn1c2ccncc2c2ccc(N3CCC(CCOCCF)CC3)nc21 [Example 155] | + (tangles) + (plaques) | 90% |  |  | Direct staining of Aβ plaques on AD brain sections at 100 μM ([1]; plaques): + (tangles) + (plaques); Selectivity (tau/Abeta) [3]: ~6-fold; Competition on AD brain section Aβ plaques (1 μM Compound B vs 250 μM compound) [2]: 15%
Cn1c2ccncc2c2ccc(Nc3cccc(F)c3N3CCOCC3)nc21 [Example 14] |  |  |  |  | pKi (AD brain-enriched PHF): 6.43
Cn1c2ccncc2c2ccc(Nc3ccc(C#N)c(F)c3)nc21 [Example 17] | +++ (tangles) |  | < 50 |  | 
Cn1c2ccncc2c2ccc(Nc3ccc(F)c(C#N)c3)nc21 [Example 6] | +++ (tangles) |  | < 50 |  | 
Cn1c2ccncc2c2ccc(Nc3ccc(OC(F)F)nc3)nc21 [Example 11] | ++ (tangles) |  |  |  | pKi (AD brain-enriched PHF): 6.73
CN1CCc2c(c3ccc(Nc4ccc5c(c4)OCO5)nc3n2C)C1=O [Example 170] |  | 20% | < 50 | − | 
Cn1c2ccncc2c2ccc(Nc3cnn(CCCCF)c3)nc21 [Example 45] |  | 39% |  | − | 
Cn1c2ccncc2c2ccc(Nc3cnn(CCF)c3)nc21 [Example 40] | +++ (tangles) | 91% |  |  | 
Cn1c2ccncc2c2ccc(Nc3cc(F)ccc3N3CCOCC3)nc21 [Example 16] |  |  | < 50 | − | 
Cn1c2ccncc2c2ccc(Nc3cc(N4CCOCC4)ccc3F)nc21 [Example 10] |  |  | < 50 | − | 
